Data on one molecule can be found in patent US20150150842A1, “DESETHYLAMIODARONE COMPOSITIONS” (priority 2012, published 2015).

Values joined by “and” are separate entries in the source; they are usually repeats but may differ in a detail not shown here. Equal entries are not always repeated.

Series [1] relates to isolated rabbit heart. Put plainly: Atrial fibrillation induced by rapid atrial pacing with carbachol in isolated (Langendorff) rabbit heart. Details: species or system New Zealand white rabbits. How it is done: Hearts from New Zealand white rabbits (1-2 kg) were used in the experiments. Animals were treated with an intravenous injection of 400 IU/kg heparin and anaesthetized by intravenous infusion of 30 mg/kg pentobarbital and sacrificed by cervical dislocation. The protocols were approved by the Department of Animal Health and Food Control of the Ministry of Agriculture and Rural Development, Hungary (XIII/01031/000/2008) and by the Ethical Committee for the Protection of Animals in Research of the University of Szeged, Szeged, Hungary (approval number I-74-125-2007). After median thoracotomy the heart was quickly removed and placed into cold (4° C.) Krebs-Henseleit solution (KHS) containing (in mM): NaCl 118, KCl 4.3, KH2PO4 1.2, MgSO4 1.2, Na pyruvate 5, NaHCO3 25, glucose 11, CaCl2 1.8, pH 7.4 when gassed with a mixture of 95% O2 and 5% CO2. The heart was then mounted on a modified Langendorff apparatus and perfused retrogradely through the aorta with oxygenated KHS warmed to 37° C. The pulmonary vein was also cannulated in order to perfuse the left atrial chamber. In order to record the optical monophasic action potentials the hearts were also loaded with the voltage sensitive fluorescent dye di-4 Anneps for 5 min. To stop the cardiac contractions and avoid motion artefacts during the optical image acquisition the electrical and mechanical activity of the heart was uncoupled by adding 11 mM 2,3-butanedione monoxime to the perfusate.
Epicardial electrograms from the left atrial and left ventricular wall were amplified with a surface electrode amplifier (Experimetria, Hungary) and monitored using a high frequency oscilloscope (Leader Electronics Corporation, Korea). […] The high resolution optical action potential mapping system consisted of a light-emitting diode (LED) lamp as an excitation light source at a wavelength of 527 nm and a high-resolution, high-speed metal-oxide-semiconductor (CMOS) camera (MiCam02, type MCO2C4) equipped with an 580 nm long pass filter for acquiring the fluorescence images from the surface of the heart at a frequency of 833 Hz. Fluorescence images were analyzed using the Brainvison Analyze software (Brainvision Inc Tokyo, Japan).
After allowing the hearts to stabilize for 15 min, acute episodes of atrial fibrillation were induced with rapid electrical stimulation of the atria at a rate of 50 Hz for 10 sec in the presence of 1 μM carbachol in the perfusate. […] All data are expressed as mean±SEM.
All chemicals were purchased from Sigma-Aldrich (St. Louis, Mo., USA), except DEA and di-4 Anneps. Di-4 Anneps was purchased from Molecular Probes Inc. (Eugene, Oreg., USA). […]

The subject of series [2] is conscious rats. How it is done:
The present experiments were performed on male, Sprague-Dawley CFY rats weighing 260-300 g. During a preliminary open-chest surgery we applied a loose silk loop around the left main coronary artery, and then the chest was closed (Leprán et al., 1983). Seven-eight days after the preliminary surgery—after complete recovery and healing—the loose silk loop was tightened to occlude the coronary artery in conscious, freely moving animals. During the first 15 min of myocardial infarction a bipolar ECG was recorded continuously (PowerLab 8SP, ADInstruments, Great Britain).
We followed the survival rate during the acute phase (first 15 min) and during the subsequent 16 hours after coronary artery occlusion. The incidence and duration of arrhythmias in the acute phase were evaluated according to the Lambeth Conventions (Walker et al., 1988), i.e. ventricular fibrillation, ventricular tachycardia, and other types of arrhythmias, including ventricular extrasystoles, bigeminy, and salvos. The size of myocardial infarction was measured in the animals surviving for 16 hours after coronary artery occlusion using nitrotetrazolium-blue dye staining.
Long-term oral pretreatment was applied for 1 month before the coronary artery occlusion. […] Control animals were given the vehicle in a volume of 5 ml/kg.

Series [3] concerns conscious dogs with structural atrial remodelling. Put plainly: Chronic rapid atrial pacing induced atrial remodelling and burst-induced atrial fibrillation in conscious dogs. As for the experimental part:
The experiments were performed on chronically instrumented Beagle dogs of both sexes, weighing 12-13 kg. The animals were subjected to the following surgery under general anaesthesia: pacemakers were implanted into bilateral subcutaneous pockets in the neck area (Logos, Karios; Biotronik Hungaria Ltd.) and were attached to pacemaker electrodes implanted into the right ventricle and right atrium. Radiofrequency catheter ablation was performed in each animal to achieve third degree atrioventricular (AV) block so that during subsequent rapid atrial pacing (400/min) the ventricles are protected from high heart rates. […] On the seventh day after surgery, following the measurement of right atrial effective refractory period the atrial pacemaker was set to a frequency of 400/min to achieve atrial electrical and structural remodelling. Right atrial rapid pacing is necessary to maintain for 3 months in this model to obtain complete remodeling of the atria signalled by the reduction of right atrial effective refractory period below 80 ms.
The body weight of animals was monitored for strict adherence to the desired dose.
The right atrial effective refractory period (ERP) was measured using the S1 -S2 protocol at cycle lengths of 150 and 300 ms. In addition ERP monitoring, 10-second long burst stimuli were applied at 800/min frequency to induce atrial fibrillation and the incidence of AF, the duration of AF episodes were measured before commencement of oral drug therapy and then after the initiation of therapy every 4 days.

Series [4] concerns dog atrial and ventricular tissue. The experiment in a line: Atrial and ventricular action potential parameters after chronic oral treatment of non-instrumented dogs. Particulars: 500 ms cycle length, 4-week oral DEA 30 or AMIO 45 mg/kg/day. The class given is in vivo, Beagle dogs.
In series [5] the test system is dogs. Particulars: 4 weeks oral AMIO 45 mg/kg (from 243.2 ms, SE=9.7 after) or DEA 30 mg/kg (from 243.6 ms, SE=7.3 after).
Series [6] relates to cardiac thyroid receptors. To be noted: reported earlier (van Beeren et al, 1995; Latham et al, 1987); cited from earlier work.
Series [7] concerns rats. The experiment in a line: Chronic 28-day non-GLP toxicology in rats.

For the molecule `CCCCc1oc2ccccc2c1C(=O)c1cc(I)c(OCCNCC)c(I)c1` [DEA, (2-Butylbenzofuran-3-yl)-[4-(2-ethylaminoethoxy)-3,5-diiodophenyl]methanone], the “Occurrence of atrial fibrillation, After treatment (number of hearts)” value in series [1] (1 μM carbachol, 50 Hz pacing 10 sec, DEA 5 μM, before treatment 5 of 5 hearts) was 0 of 5 and 0. The “Occurrence of atrial fibrillation after treatment, %” value in series [1] (1 μM carbachol, DEA 5 μM, Control 77) was determined as 0%. Also, the “Average duration of atrial fibrillation episodes, After treatment” value in series [1] (1 μM carbachol, DEA 5 μM, mean±SEM, before treatment 110.2 ± 37.1) came out at 0 ± 0. The “Occurrence of atrial fibrillation” value in series [1] (second trial) was “completely prevented the occurrence of atrial fibrillation”. Further, in series [2] (1 month oral pretreatment), the “Death due to the 1 month treatment” value is recorded as “No death occurred” and the “Survival rate during the acute phase of experimental myocardial infarction” value is “significantly improved”. In addition, the “Behavioral changes, body weight increments” value in series [2] (1 month oral pretreatment, AMIO 30 or 100, DEA 15 or 50 mg/kg/day) is reported as “Neither AMIO nor DEA produced any behavioral changes of the animals, or in body weight increments”. In series [2] (first 15 min after coronary artery occlusion, 1 month oral AMIO 100 or DEA 50 mg/kg/day, control 4.77±0.33), this molecule registered an Arrhythmia score of 3.27±0.56. For the same molecule, in series [2] (larger doses (AMIO 100, DEA 50 mg/kg/day), after coronary artery occlusion), the “Incidence of ventricular fibrillation” value is given as “significantly decreased”. In addition, in series [3] (oral DEA 25 mg/kg/day, Control (before) 1 122.6, 1 505.8, 6 739.1), the “AF duration (s), Following 4-week treatment, individual animals” value is 21.6 s and 44 s and 1.9 s. Moreover, the “Lg AF duration, Following 4-week treatment, individual animals” value in series [3] (oral DEA 25 mg/kg/day, Control (before) 3.05, 3.17, 3.82) was 1.33 and 1.64 and 0.28. Besides, the “ERP, Following 4-week treatment, individual animals” value in series [3] (oral DEA 25 mg/kg/day, animals 2010/06, 2010/11, 2010/14, Control (before) <80 in all) was 80 ms (2×) and <80 ms. Besides, the “Incidence of AF, Following 4-week treatment, individual animals” value in series [3] (oral DEA 25 mg/kg/day, burst-induced AF, Control (before) 60%, 50%, 27%) was 10% (2×) and 27%. In series [3] (oral DEA 25 mg/kg/day, n=3, Control (before) 3.35 ± 0.24), the “Lg AF duration, Following 4-week treatment, Mean ± SE” value was 1.08 ± 0.41. Moreover, in series [3] (oral DEA 25 mg/kg/day, n=3, Control (before) 45.7 ± 9.77), the “Incidence of AF, Following 4-week treatment, Mean ± SE” value came to 15.7 ± 5.67%. The “AF duration (s), Following 4-week treatment, Mean ± SE” value in series [3] (oral DEA 25 mg/kg/day, n=3, Control (before) 3122 ± 1811.7) is reported as 22.5 ± 12.16 s. For the same molecule, in series [3] (three animals, 4-week oral treatment, DEA 25, AMIO 50 mg/kg/day, accompanied by prolongation of the ERP), the “Incidence and duration of atrial fibrillation” value is “markedly and significantly decreased”. Moreover, in series [4] (n = 3, CONTROL 249.7 ± 52.7), the “Vmax (V/s), Dog atrium” value was found to be 231.5 ± 45.4 V/s. Moreover, the “APD90 (ms), Dog atrium” value in series [4] (n = 4, CONTROL 123.9 ± 9.6) worked out at 156.6 ± 12.6 ms. For the same molecule, the “ECG QTc interval after treatment” value in series [5] came out at 266.9 ms. In series [6], the “Affinity for cardiac thyroid receptors compared to AMIO” value is “higher affinity”. Besides, in series [7] (28-day oral AMIO 200 mg/kg/day or DEA 100 mg/kg/day, plasma (DEA: plasma or cardiac tissue)), the “Detection of the administered drug 14 days after the completion of administration” value is listed as “not detected in plasma or cardiac tissue samples”. The “Elimination of DEA compared to AMIO” value in series [7] (28-day oral study) is listed as “significantly faster”.
